# pIC50: −log10 of the molar value.
# Experiments:
# [1] = system: MV4-11; assay: Cytotoxicity towards MV4-11 cell line; type: cell-based; settings: Homo sapiens
# Description: (§1) In various embodiments, the compounds of the disclosure are those in which show IC50 values in cytotoxicity experiments towards cells lines MV4-11 and U937 of >20 μM, 10-20 μM, 5-10 μM, 1-5 μM, or <1 μM.
# (§2) The IC50 is divided into 5 categories: A<1 μM, B 1-5 μM, C 5-10 μM, D 10-20 μM, and E>20 μM.
# [2] = system: U-937; assay: Cytotoxicity towards U-937 cell line; type: cell-based; settings: Homo sapiens
# Description: as §1, §2
SMILES,pIC50 [1],pIC50 [2]
O=C(NCCCn1ccnc1)c1ccc(-n2cccn2)c(C#Cc2cccc(C(F)(F)F)c2)c1 [TT-03331],> 6.00,> 6.00
O=C(NCCCc1cn[nH]c1)c1ccc(-n2cccn2)c(C#Cc2cccc(C(F)(F)F)c2)c1 [TT-03332],> 6.00,> 6.00
NCc1ccc(C#Cc2cc(C(=O)NCCCc3cn[nH]c3)ccc2-n2cccn2)cc1 [TT-03334],> 6.00,> 6.00
C#Cc1cc(C(=O)NCCCc2cn[nH]c2)ccc1-n1cccn1 [TT-03337],4.70 to 5.00,< 4.70
CC(C)(O)C#Cc1cc(C(=O)NCCCc2cn[nH]c2)ccc1-n1cccn1 [TT-03346],5.00 to 5.30,< 4.70
O=C(NCCCc1cn[nH]c1)c1ccc(-n2cccn2)c(C#CC2(O)CCCCC2)c1 [TT-03351],5.00 to 5.30,5.00 to 5.30
Nc1cccc(C#Cc2cc(C(=O)NCCCc3cn[nH]c3)ccc2-n2cccn2)n1 [TT-03354],> 6.00,> 6.00
O=C(NCCCc1cn[nH]c1)c1ccc(-n2cccn2)c(C#Cc2ccccn2)c1 [TT-03355],> 6.00,> 6.00
N#Cc1cccc(C#Cc2cc(C(=O)NCCCc3cn[nH]c3)ccc2-n2cccn2)c1 [TT-03357],> 6.00,> 6.00
CNC(=O)c1cccc(C#Cc2cc(C(=O)NCCCc3cn[nH]c3)ccc2-n2cccn2)c1 [TT-03359],> 6.00,> 6.00
CC(C)(C)OC(=O)NCc1ccc(C#Cc2cc(C(=O)NCCCc3cn[nH]c3)ccc2-n2cccn2)cc1 [TT-03364],5.30 to 6.00,5.30 to 6.00
O=C(NCCCc1cn[nH]c1)c1ccc(-n2cccn2)c(C#Cc2ccc(F)cn2)c1 [TT-03569],> 6.00,> 6.00
O=C(NCCCn1ccnc1)c1ccc(-n2cccn2)c(CCc2ccccc2)c1 [TT-03574],5.00 to 5.30,5.00 to 5.30
O=C(NCCCc1cn[nH]c1)c1ccc(-c2ccncc2)c(C#Cc2ccc(F)cc2)c1 [TT-03582],> 6.00,> 6.00
Cn1cc(-c2ccc(C(=O)NCCCc3cn[nH]c3)cc2C#Cc2ccc(F)cc2)cn1 [TT-03585],> 6.00,> 6.00
O=C(NCCCc1cn[nH]c1)c1ccc(N2CCC(O)CC2)c(C#Cc2ccc(F)cc2)c1 [TT-03587],> 6.00,> 6.00
O=C(NCCCc1cn[nH]c1)c1ccc(N2CCCCC2)c(C#Cc2ccc(F)cc2)c1 [TT-03588],> 6.00,> 6.00
O=C(NCCCc1cn[nH]c1)c1ccc(N2CCCCCC2)c(C#Cc2ccc(F)cc2)c1 [TT-03589],> 6.00,> 6.00
O=C(NCCCc1cn[nH]c1)c1ccc(N2CCC3(CCCCC3)C2)c(C#Cc2ccc(F)cc2)c1 [TT-03590],> 6.00,> 6.00
O=C(NCCCc1cn[nH]c1)c1ccc(N2CCC(C(F)(F)F)CC2)c(C#Cc2ccc(F)cc2)c1 [TT-03591],> 6.00,> 6.00
O=C(NCCCc1cn[nH]c1)c1ccc(N2CCCCC2CCO)c(C#Cc2ccc(F)cc2)c1 (centres unmarked) [TT-03592],> 6.00,> 6.00
CN(C)CC1(O)CCN(c2ccc(C(=O)NCCCc3cn[nH]c3)cc2C#Cc2ccc(F)cc2)C1 (centres unmarked) [TT-03594],> 6.00,> 6.00
O=C(NCCCc1cn[nH]c1)c1ccc(N2CCCC(CO)C2)c(C#Cc2ccc(F)cc2)c1 (centres unmarked) [TT-03595],> 6.00,> 6.00
CC(C)(C)OC(=O)N1CCN(c2ccc(C(=O)NCCCc3cn[nH]c3)cc2C#Cc2ccc(F)cc2)CC1 [TT-03596],> 6.00,> 6.00
O=C(NCCCc1cn[nH]c1)c1ccc(N2CCNCC2)c(C#Cc2ccc(F)cc2)c1 [TT-03597],> 6.00,> 6.00

SMILES,pIC50 [1],pIC50 [2]
CN1CCN(c2ccc(C(=O)NCCCc3cn[nH]c3)cc2C#Cc2ccc(F)cc2)CC1 [TT-03598],> 6.00,> 6.00
CC(=O)N1CCN(c2ccc(C(=O)NCCCc3cn[nH]c3)cc2C#Cc2ccc(F)cc2)CC1 [TT-03599],> 6.00,> 6.00
Cc1nccn1-c1ccc(C(=O)NCCCc2cn[nH]c2)cc1C#Cc1ccc(F)cc1 [TT-03602],> 6.00,> 6.00
O=C(NCCCc1cn[nH]c1)c1ccc(-n2cccn2)c(C#Cc2cccc(N3CCCC3)n2)c1 [TT-03611],> 6.00,> 6.00
O=C(NCCCc1cn[nH]c1)c1ccc(-n2cccn2)c(C#Cc2ccc3nccn3c2)c1 [TT-03620],> 6.00,> 6.00
CN(C)c1cccc(C#Cc2cc(C(=O)NCCCc3cn[nH]c3)ccc2-n2cccn2)n1 [TT-03623],> 6.00,> 6.00
NC(=O)c1cccc(C#Cc2cc(C(=O)NCCCc3cn[nH]c3)ccc2-n2cccn2)c1 [TT-03625],> 6.00,> 6.00
Cc1nn(-c2ccc(C(=O)NCCCc3cn[nH]c3)cc2C#Cc2ccccc2)c(C)c1C [TT-03626],> 6.00,> 6.00
O=C(NCCCc1cn[nH]c1)c1ccc(-n2ccnc2)c(C#Cc2ccc(F)cc2)c1 [TT-03627],> 6.00,> 6.00
Cn1cc(CCCNC(=O)c2ccc(-n3cccn3)c(C#Cc3ccc(F)cc3)c2)cn1 [TT-03630],> 6.00,> 6.00
O=C(NCCCc1cn[nH]c1)c1ccc(N2CCOCC2)c(C#Cc2ccncc2)c1 [TT-03631],> 6.00,> 6.00
O=C(NCCCc1cn[nH]c1)c1ccc(N2CCOCC2)c(C#Cc2ccc(F)cn2)c1 [TT-03633],> 6.00,> 6.00
O=C(NCCCc1cn[nH]c1)c1ccc(-n2cnnc2)c(C#Cc2ccc(F)cc2)c1 [TT-03634],> 6.00,> 6.00
O=C(NCCCc1cn[nH]c1)c1ccc(N2CCOCC2)c(C#Cc2ccc(Cl)nc2)c1 [TT-03655],> 6.00,> 6.00
O=C(NCCCc1cn[nH]c1)c1ccc(N2CCOC(CN3CCCCC3)C2)c(C#Cc2ccc(F)cc2)c1 (centres unmarked) [TT-03669],> 6.00,> 6.00
C[C@@H]1CN(c2ccc(C(=O)NCCCc3cn[nH]c3)cc2C#Cc2ccc(F)cc2)C[C@H](C)O1 [TT-03670],> 6.00,> 6.00
O=C1CN(c2ccc(C(=O)NCCCc3cn[nH]c3)cc2C#Cc2ccc(F)cc2)CCN1 [TT-03671],> 6.00,> 6.00
CC1(C)CCCN(c2ccc(C(=O)NCCCc3cn[nH]c3)cc2C#Cc2ccc(F)cc2)C1 [TT-03676],> 6.00,> 6.00
O=C(NC/C=C/c1cn[nH]c1)c1ccc(N2CCCC2)c(C#Cc2ccc(F)cc2)c1 [TT-03717],> 6.00,> 6.00
C[C@@H]1CN(c2ccc(C(=O)NC/C=C/c3cn[nH]c3)cc2C#Cc2ccc(F)cc2)C[C@H](C)O1 [TT-03718],> 6.00,> 6.00
COc1ccc(C#Cc2cc(C(=O)NCCCc3cn[nH]c3)ccc2N2CCOCC2)cn1 [TT-03720],> 6.00,> 6.00
NCCOCCOCCOCCN1CCN(c2ccc(C(=O)NCCCn3ccnc3)cc2C#Cc2ccc(F)cc2)CC1 [TT-03725],> 6.00,> 6.00
C[C@@H]1CN(c2ccc(C(=O)NCCCn3ccnc3)cc2C#Cc2ccc(F)cc2)C[C@H](C)O1 [TT-03727],> 6.00,> 6.00
C[C@@H]1CN(c2ccc(C(=O)N3CC[C@H](O)[C@@H](n4ccnc4)CC3)cc2C#Cc2ccc(F)cc2)C[C@H](C)O1 [TT-03732],> 6.00,5.30 to 6.00
